Measured values reported in publication PMC3974779, “Pterostilbene-Isothiocyanate Conjugate Suppresses Growth of Prostate Cancer Cells Irrespective of Androgen Receptor Status” (PLoS ONE, 2014).

What was measured:
PC-3 cells = assay: Cell cycle distribution by flow cytometry; format: cell-based, human; conditions: PC-3, 40 μM, 24 h (control 22%)
Experimental: Cell cycle distribution and Annexin V/Propidium iodide (PI) positive cells were analyzed using flow cytometry. In brief, first the cells were seeded and treated with 0, 10, 20 and 40 μM conjugate in complete medium for 24 h. This was followed by trypsinizing and fixing in 70% ethanol, and finally washing with PBS. Subsequently, the cells were treated with RNase A (50 μg/ml), stained with PI (50 μg/ml) and incubated in the dark for 30 min at room temperature and analyzed by flow cytometry for cell cycle distribution. For apoptosis, the conjugate treated cells were stained with Alexa-Fluor 488-conjugated Annexin-V using the Vybrant-Apoptosis Assay Kit from Invitrogen (USA) as per the manufacturer’s protocol. The stained cells were then analyzed by fluorescence activated cell sorting (FACS Calibur, BD Biosciences, San Jose, CA, USA) and the data were standardized using Cell Quest 3.3 software.

[1] = tested on: AR protein in LNCaP cells; assay: Immunoblot of AR protein; format: cell-based, human; conditions: for inhibition of DHT induced AR protein levels: 10 nM DHT; for inhibition of AR protein levels: absence of DHT
Experimental: The whole-cell lysates were prepared as described previously in immunoprecipitation (IP) buffer containing 50 mM Tris-HCl (pH 8.0), 150 mM NaCl, 5 mM EDTA, and 1% Triton X-100. Protein aliquots of 500 μg were then incubated overnight at 4°C using 2 μg of antibody directed against AR. The Protein A-Cl Agarose beads were then added and further incubated for 6 h at 4°C. The immunoprecipitates were washed four times with the IP buffer and the immunocomplexes were recovered by boiling in SDS sample buffer. Finally the western blot was carried out using anti-AR, anti-SRC-1 and anti-GRIP-1 antibodies (Santa Cruz, CA, USA). For western blot analysis, the cell lysates were prepared after harvesting them in lysis buffer. About 40 μg of total protein was electrophoresed by 12% SDS-PAGE, and the western blotting was carried out using standard protocol. In brief, the analyzed proteins were transferred to nylon membranes. The blots were then blocked with TBST buffer (20 mM Tris-Cl, pH 7.5, 150 mM sodium chloride, 0.05% Tween-20) containing 5% skim milk powder. They were then washed with TBST buffer and incubated overnight at 4°C with the same buffer containing appropriate amounts of primary antibodies: caspase-3, Bax, Bcl-2, Akt, p-Akt, ERK, p-ERK, AR, SRC-1, GRIP-1 (1∶500) and β-actin (1∶1000). The blots were then washed and incubated with anti-rabbit secondary antibody (1∶20,000) conjugated with horseradish peroxidase (HRP). Color development was performed in the dark by using an ECL kit (Amersham, GE Healthcare, Buckinghamshire, UK). The developed blots were subjected to densitometric analysis by ImageJ 1.43 software (NIH, USA) using β-actin as internal control.

hAR in PC-3 cells = molecular target: T1, hAR in PC-3 cells (Homo sapiens, UniProt P10275); assay: AR transactivation luciferase assay (pSG5-hAR + pMMTV-luc); format: cell-based; conditions: 10 nM DHT
T1 construct: full length hAR in pSG5 expression vector; expressed in transfected cells; host or cells: PC-3 (AR-negative)
T1 sequence (P10275 1-920): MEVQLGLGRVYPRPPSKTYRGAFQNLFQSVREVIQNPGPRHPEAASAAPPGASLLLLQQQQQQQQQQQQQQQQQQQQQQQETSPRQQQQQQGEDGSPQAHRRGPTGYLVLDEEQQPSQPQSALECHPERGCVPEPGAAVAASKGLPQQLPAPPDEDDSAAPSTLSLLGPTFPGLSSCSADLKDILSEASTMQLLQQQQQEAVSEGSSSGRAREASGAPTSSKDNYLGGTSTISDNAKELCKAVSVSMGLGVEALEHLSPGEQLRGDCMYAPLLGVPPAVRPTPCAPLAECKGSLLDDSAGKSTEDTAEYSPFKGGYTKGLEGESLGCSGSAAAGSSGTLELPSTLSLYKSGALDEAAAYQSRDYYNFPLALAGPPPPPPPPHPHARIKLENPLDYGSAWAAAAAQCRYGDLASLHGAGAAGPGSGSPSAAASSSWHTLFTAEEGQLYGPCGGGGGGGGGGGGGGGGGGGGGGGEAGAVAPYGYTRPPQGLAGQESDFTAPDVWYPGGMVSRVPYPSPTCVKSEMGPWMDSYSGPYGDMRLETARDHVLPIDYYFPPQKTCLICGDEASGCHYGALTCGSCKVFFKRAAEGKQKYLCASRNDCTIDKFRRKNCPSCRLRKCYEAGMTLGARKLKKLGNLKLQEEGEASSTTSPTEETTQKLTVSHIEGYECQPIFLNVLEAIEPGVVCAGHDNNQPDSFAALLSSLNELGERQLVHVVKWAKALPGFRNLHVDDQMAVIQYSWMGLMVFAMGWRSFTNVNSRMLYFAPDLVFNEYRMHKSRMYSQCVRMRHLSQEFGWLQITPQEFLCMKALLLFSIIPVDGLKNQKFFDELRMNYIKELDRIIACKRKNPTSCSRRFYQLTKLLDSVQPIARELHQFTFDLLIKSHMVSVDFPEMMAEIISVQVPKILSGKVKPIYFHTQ
Experimental: The LNCaP cells were grown and transiently transfected with pMMTV-neomycin-luciferase plasmid (300 ng/10^5 cells) in RPMI media supplemented with 10% FBS using polyfect transfection reagent (Qiagen, CA, USA) according to manufacturer’s instructions. Then, 24 h after transfection, the cell culture media were changed with media containing 5% charcoal-stripped FBS to reduce the contaminating steroids from the serum and incubated for an additional day before initiating the treatments. In case of PC-3 cells, they were similarly transfected, but in addition to pMMTV-neomycin-luciferase construct, they were also transfected with pSG5-hAR-puro plasmid (full length hAR in pSG5 expression vector) in the ratio of 5∶1 as indicated above. For experiments involving co-regulators, 50 ng of co-activator plasmids (25 ng each of GRIP-1 and SRC-1) along with pMMTV-neo-luc (250 ng) were transfected to LNCaP cells. To evaluate the transfection efficiency, 500 ng/105 cells of the SV40 promoter-Renilla luciferase (pRL-SV40) vector (Promega Madison, USA) were co-transfected as internal control. […] Each experimental point was performed in triplicate and varied by less than 10%. The values of luciferase for each lysates were normalized to the Renilla luciferase activity.

**Q.** Which results are given for `COc1cc(/C=C/c2ccc(O)c(/C=N/NC(N)=S)c2)cc(OC)c1` [conjugate, Pterostilbene-isothiocyanate conjugate]?
**A.** cells arrested in G2/M phase (PC-3 cells): approximately 50%; inhibition of DHT induced AR protein levels ([1]; 10 μM): 1.1 folds; inhibition of AR protein levels ([1]; 10 μM): 2 folds; inhibition of DHT induced AR protein levels ([1]; 20 μM): 1.8 folds; inhibition of AR protein levels ([1]; 20 μM): 5 folds; reduction of DHT-mediated luciferase activity (hAR in PC-3 cells; PC-3, 5 μM): 19%; reduction of DHT-mediated luciferase activity (hAR in PC-3 cells; PC-3, 10 μM): 31%; reduction of DHT-mediated luciferase activity (hAR in PC-3 cells; PC-3, 20 μM): 63%; reduction of DHT-mediated luciferase activity (hAR in PC-3 cells; PC-3, 30 μM): 70%; reduction of DHT-mediated luciferase activity (hAR in PC-3 cells; PC-3, 40 μM): 80%
